# In patent EP1140984B1, “SELECTIVE INHIBITORS OF MMP-12” (Aventis Pharmaceuticals Inc., priority 1998, dated 2000):
# Structures can show the parent of a compound that is named as a salt.
# Legend:
# MMP-3 = target: T1, MMP-3 (Homo sapiens, UniProt P08254); experiment: Determination of inhibition constant (Ki) for MMP-3, fluorogenic substrate assay; assay type: biochemical; settings: substrate Mca-Pro-Leu-Gly-Leu-Dpa-Ala-Arg-NH2, 37°C, pH 7.6, [S] = 1 µM, [MMP-3] = 1 nM
# T1 construct: The active MMP-3 was obtained by treatment of proMMP-3 with trypsin; endogenous in cells; host or cells: human rheumatoid synovial fibroblasts stimulated with macrophage-conditioned medium
# Protocol: ProMMP-3 (EC 3.4.24.17; Stromelysin-1) was purified from culture medium of human rheumatoid synovial fibroblasts stimulated with macrophage-conditioned medium according to Okada, Y. et al., J. Biol. Chem. 261, 14245-14255 (1986). The active MMP-3 was obtained by treatment of proMMP-3 with trypsin (5 µg/mL) at 37°C for 30 minutes, followed by addition of soybean trypsin inhibitor (50 µg/mL). Aliquots of the activated MMP-3 were stored at -20°C.
# The activated MMP-3 is assayed using a fluorogenic substrate, Mca-Pro-Leu-Gly-Leu-Dpa-Ala-Arg-NH2, Knight, C.G. et al., FEBS Lett. 296, 263-266 (1992), at 37°C in an assay buffer containing 50 mM Tris, pH 7.6, 0.2 M sodium chloride, 50 mM calcium chloride, and 0.02% Brij-35. The increase in fluorescence due to cleavage of Gly-Leu peptide bond by MMP-3 was monitored with Perkin-Elmer LS50B Fluorimeter (λex 328 nm, λem 393 nm, excitation slit 2.5, emission slit 10). Substrate and inhibitor stock solutions were made in DMF and 0.1% HCI-DMF, respectively. For determination of Ki values for MMP-3 inhibitors, a series of intermediate inhibitor solutions were prepared in 0.1% HCl-DMF and 1 or 2 µL of the diluted inhibitor solution was mixed with 1 µL of 2 mM substrate solution in DMF in a quartz cuvette containing 2 mL of assay buffer. The enzyme (10 µL of 0.2 µM MMP-3 dilution in assay buffer) was added at the last to start the reaction. For routine measurement of a Ki value for a reversible, competitive inhibitor, the initial rates in the presence of at least four inhibitor concentrations (two concentrations above Ki and two concentrations below Ki) were measured using [S] = 1 µM (<< Km) and [MMP-3] = 1 nM. Under these conditions, the measured Ki, app is close to true Ki.
# The Ki for a competitive inhibitor is calculated using: v0/vi = (1 + [I]/Ki, app) and Ki = Ki, app/(1 + [S]/Km), where v0 is the initial rate in the absence of inhibitor, vi is the initial rate in the presence of inhibitor at the concentration of [I], [S] is the substrate concentration, and Km is the Michaelis constant. If slow binding is observed (i.e. if the approach to the binding equilibrium is slow), the final steady-state rate rather than the initial rate is taken as vi.
# MMP-12 = target: T2, MMP-12 (Homo sapiens, UniProt P39900); experiment: Determination of inhibition constant (Ki) for MMP-12 (macrophage metalloelastase), fluorogenic substrate assay, cuvette or microtiter plate; assay type: biochemical; settings: substrate Mca-Pro-Leu-Gly-Leu-Dpa-Ala-Arg-NH2, 25°C, pH 7.6, [MMP-12] = 2 nM
# T2 construct: made in house
# Protocol: MMP-12 (EC 3.4.24.65) was cloned, expressed and purified according to Shapiro, S.D. et al., J Biol. Chem. 268, 23824-23829 (1993). […] Aliquots of MMP-12 were stored at -70C.
# The potency of inhibitors of MMP-12 was measured using either quartz cuvettes or microtiter plates. The activity of MMP-12 was measured using a fluorogenic substrate, Mca-Pro-Leu-Gly-Leu-Dpa-Ala-Arg-NH2, Knight, C.G. et al., FEBS Lett. 296, 263-266 (1992), at 25°C in an assay buffer containing 50 mM Tris, pH 7.6, 0.2 M sodium chloride, 50 mM calcium chloride, and 0.02% Brij-35. The increase in fluorescence due to cleavage of Gly-Leu peptide bond by MMP-12 was monitored with a Perkin-Elmer LS50B Fluorimeter (λex 328 nm, λem 393 nm, excitation slit 2.5, emission slit 10) for the cuvette assay and with a Molecular Devices Fmax fluorescence plate reader (λex 320 nm, λem 405 nm) for the microtiter plate assay. Substrate and inhibitor stock solutions were made in N,N-dimethylformamide (DMF) and 0.1% HCl-DMF, respectively.
# Ki values were determined using the cuvette method by preparing a series of intermediate inhibitors solutions in 0.1% HCl-DMF and mixing the inhibitor with substrate (final concentration 2 µM) in a quartz cuvette containing 2 ml of assay buffer. MMP-12 was added to start the reaction at a concentration of 2 nM and progress curves were generated. For routine measurement of a Ki value for a reversible competitive inhibitor, the initial rates in the presence of at least four inhibitor concentrations (two concentrations above and two concentrations below the Ki) were measured [S] = 2 µM (<<Km) and [MMP-12] = 2 nM. Under these conditions, the measured Ki,app is close to the true Ki.
# Ki values were determined using the microtiter plate method in a manner similar to that described for the cuvette method with some modifications. Four different inhibitor concentrations (50 µl in assay buffer) of each compound were added to separate wells of a microtiter plate and substrate was added (100 µl) to get a final concentration of […]. MMP-12 was added to a final concentration of 2 nM (50 µl) to start the reaction. Cleavage of substrate was recorded every 30 seconds for 30 minutes and progress curves were generated.
# The Ki for a competitive inhibitor was calculated using: Vo/Vi = (1+[I]/Ki,app) and Ki = Ki,app/(1+[S]/Km), where Vo is the initial rate in the absence of inhibitor, Vi is the initial rate in the presence of inhibitor at the concentration of [I], [S] is the substrate concentration, and Km is the Michaelis constant. If slow binding is observed (i.e. if the approach to the binding equilibium is slow), the final steady-state rate rather than the initial rate is taken as Vi.
# T1 sequence (P08254 100-477): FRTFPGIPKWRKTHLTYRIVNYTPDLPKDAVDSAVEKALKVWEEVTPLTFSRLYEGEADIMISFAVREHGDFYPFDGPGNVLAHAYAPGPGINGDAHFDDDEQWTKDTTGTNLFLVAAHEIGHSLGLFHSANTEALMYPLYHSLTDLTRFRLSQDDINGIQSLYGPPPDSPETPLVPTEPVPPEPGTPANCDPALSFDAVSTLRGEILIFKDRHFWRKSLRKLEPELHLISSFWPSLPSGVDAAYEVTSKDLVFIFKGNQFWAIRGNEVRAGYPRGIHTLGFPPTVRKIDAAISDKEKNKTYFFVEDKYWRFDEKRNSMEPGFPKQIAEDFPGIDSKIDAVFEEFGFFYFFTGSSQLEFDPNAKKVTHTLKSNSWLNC
# T2 sequence (P39900 106-263 limits assumed): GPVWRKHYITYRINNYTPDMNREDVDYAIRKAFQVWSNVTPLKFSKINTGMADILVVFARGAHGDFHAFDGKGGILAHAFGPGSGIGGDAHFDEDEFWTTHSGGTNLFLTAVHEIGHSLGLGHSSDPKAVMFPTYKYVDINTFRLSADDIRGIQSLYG
SMILES,Ki (MMP-3),Ki (MMP-12)
"CC(C)C[C@H](NC(=O)C(S)C(C)C)C(=O)N[C@@H](Cc1ccccc1)C(=O)O (stereo in doubt) [Example 3, (S)-2-Mercapto-3-methylbutyroyl-(L)-leucyl-(L)-phenylalanine]",1.41 µM,0.014 µM
"CSCC[C@H](NC(=O)C(S)C(C)C)C(=O)N[C@@H](Cc1ccccc1)C(=O)O (stereo in doubt) [Example 4, (S)-2-Mercapto-3-methylbutyroyl-(L)-methionyl-(L)-phenylalanine]",0.449 µM,0.014 µM
"CCCC(S)C(=O)N[C@@H](CCc1ccccc1)C(=O)N[C@@H](Cc1ccccc1)C(=O)O (some centres unmarked) [Example 1, 2-Mercapto-pentanoyl-(L)-homo-phenylalanyl-(L)-phenylalanine]",0.75 µM,0.013 µM
"CC(C)[C@H](S)C(=O)N[C@@H](CCc1ccccc1)C(=O)N[C@@H](Cc1ccccc1)C(=O)O [Example 2, (S)-2-Mercapto-3-methylbutyroyl-(L)-homo-phenylalanyl-(L)-phenylalanine]",0.365 µM,0.004 µM

# Further lines, results first:
Ki (MMP-3),Ki (MMP-12),SMILES
1.55 µM,0.151 µM,"CC(C)C(S)C(=O)N[C@@H](CCCCN)C(=O)N[C@@H](Cc1ccccc1)C(=O)O (stereo in doubt) [Example 5, (S)-2-Mercapto-3-methylbutyroyl-(L)-lysyl-(L)-phenylalanine trifluoroacetic acid salt]"
0.014 µM,0.014 µM,"CCCC(S)C(=O)N[C@@H](CCc1ccccc1)C(=O)N[C@@H](Cc1ccccc1)C(=O)NC (stereo partly drawn) [Example 6, (S)-2-Mercaptopentanoyl-(L)-homo-phenylalanyl-(L)-phenylalanine N-methyl amide]"
0.01 µM,0.0006 µM,"CNC(=O)[C@H](Cc1ccccc1)NC(=O)[C@H](CCc1ccccc1)NC(=O)[C@@H](S)C(C)C [Example 7, (S)-2-Mercapto-3-methylbutyroyl-(L)-homo-phenylalanyl-(L)-phenylalanine N-methyl amide]"
